The target of test [1] is T1, GST-RIPK2 fusion protein (human RIPK2, amino acids 1-310) (Homo sapiens, UniProt O43353).
T1 construct: made in house; host or cells: baculovirus infected Sf9 cells
Briefly: RIPK2 binding competition assay (TR-FRET, Tracer 199 displacement). The settings on record: 10 nM Tracer 199, 1 nM GST-RIPK2, read-out: RIPK2 IC50. The method in brief:
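IC50 derived from the TR-FRET emission ratio (665/620 nm, 337 nm excitation), normalized with no-inhibitor and no-enzyme controls. Incubation 45 min at 22 °C, pH 7.5 Tris buffer, with final 10 nM tracer, 1 nM Sf9-expressed GST-RIPK2 fragment (aa 1-310) and 0.5 nM Tb-labelled anti-GST.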
Background: TR-FRET usually uses a lanthanide donor and a delayed reading to cut background.

For test [2], the target named is T2, binding of His-XIAP(BIR2)-avi fusion protein to GST-RIPK2 fusion protein (RIPK2/XIAP) (Homo sapiens, UniProt O43353).
T2 construct: made in house; host or cells: baculovirus infected Sf9 cells
T2 sequence (O43353 1-310 limits assumed): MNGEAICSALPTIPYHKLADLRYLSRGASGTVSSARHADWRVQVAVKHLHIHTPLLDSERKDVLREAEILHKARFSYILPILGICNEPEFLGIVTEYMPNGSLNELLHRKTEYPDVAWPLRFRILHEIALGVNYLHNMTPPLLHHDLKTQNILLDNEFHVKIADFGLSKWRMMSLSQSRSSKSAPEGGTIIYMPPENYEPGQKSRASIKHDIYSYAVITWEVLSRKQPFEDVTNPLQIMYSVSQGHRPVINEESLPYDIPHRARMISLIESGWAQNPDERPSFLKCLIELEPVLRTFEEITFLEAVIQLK
The test is described as follows: RIPK2-XIAP binding competition PPI assay (TR-FRET). The settings on record: RIPK2/XIAP binding competition PPI assay; for Emax: Amax, read-out: PPI Amax bin; for IC50: read-out: PPI IC50 bin. The method in brief:
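Compounds (in DMSO, 100-fold stock) incubated 120 min at 23 °C with 1 nM GST-RIPK2 (aa 1-310) and 25 nM His-XIAP(BIR2 aa 152-231)-avi, plus anti-His-XL665 and anti-GST-Tb, in pH 7.5 Tris buffer. Read-out: 665/520 nm emission ratio. Normalized to no-inhibitor (0%) and 50 nM GSK583 (−100%); Amax binned A–D.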

Test [3] deals with NF-κB pathway (SEAP) in THP1-Dual cells. Briefly: THP-1 Dual cell SEAP assay (L18-MDP stimulated). It is filed as cell-based. The settings on record: Homo sapiens, THP1-Dual, read-out: NF-κB THP1 IC50 bin. The method in brief: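 IC50 values derive from non-linear regression of % inhibition, calculated against DMSO/L18-MDP-treated wells after media-only subtraction. NF-κB SEAP activity was read at OD 620-655 nm (QUANTI-Blue, 2 h, 37 °C) from supernatants of THP1-Dual cells. Cells had been compound-treated 30 min before overnight (20-24 h) stimulation with 10 ng/mL final L18-MDP.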

The values below come from US20260137706A1, “METHODS OF TREATING INFLAMMATORY DISEASES” (INTERLINE THERAPEUTICS, INC., priority 2023, published 2026).

T1 sequence (O43353 1-310): as the sequence (O43353 1-310 limits assumed) above

As usually defined, the IC50 is the concentration that gives 50% inhibition. `COc1cc2ncc(-c3cc(F)c(N)nc3F)n2cc1S(=O)(=O)C(C)(C)CO` [Example 60, 2-((3-(6-amino-2,5-difluoropyridin-3-yl)-7-methoxyimidazo[1,2-a]pyridin-6-yl)sulfonyl)-2-methylpropan-1-ol]: the IC50 in test [1] was in the range of 0.0025 to 0.02 µM; in test [2], 0.0025 to 0.02 µM; in test [3], 0.25 to 1 µM. The Emax in test [2] is more than 80%.
In the case of `COc1cc2ncc(-c3ccc(N)nc3F)n2cc1S(=O)(=O)CCCO` [Example 61, 3-((3-(6-amino-2-fluoropyridin-3-yl)-7-methoxyimidazo[1,2-a]pyridin-6-yl)sulfonyl)propan-1-ol], the IC50 in test [1] is more than 0.02 µM; in test [2], more than 0.02 µM; in test [3], more than 1 µM. For the same compound, the Emax in test [2] is more than 80%.
As for `COc1cc2ncc(-c3cc(F)c(N)nc3F)n2cc1S(=O)(=O)C(C)(C)CCO` [Example 62, 3-((3-(6-amino-2,5-difluoropyridin-3-yl)-7-methoxyimidazo[1,2-a]pyridin-6-yl)sulfonyl)-3-methylbutan-1-ol], the half-maximal inhibitory concentration (IC50) in test [1] was 0.0025 to 0.02 µM; in test [2] it was 0.0025 to 0.02 µM; in test [3], 0.25 to 1 µM. In addition, in test [2], the Emax was more than 80%.
Turning to `COc1cc2ncc(-c3cc(F)c(N)nc3F)n2cc1S(=O)(=O)C(C)(C)CCCO` [Example 63, 4-((3-(6-amino-2,5-difluoropyridin-3-yl)-7-methoxyimidazo[1,2-a]pyridin-6-yl)sulfonyl)-4-methylpentan-1-ol], the IC50 is 0.0025 to 0.02 µM in test [1], 0.0025 to 0.02 µM in test [2] and more than 1 µM in test [3]. Also, in test [2], the Emax was more than 80%.
As to `COc1cc2ncc(-c3cc(F)c(N)nc3F)n2cc1S(=O)(=O)C(C)(C)c1nc(C)no1` [Example 64, 3,6-difluoro-5-(7-methoxy-6-((2-(3-methyl-1,2,4-oxadiazol-5-yl)propan-2-yl)sulfonyl)imidazo[1,2-a]pyridin-3-yl)pyridin-2-amine], the values for the IC50 in test [1], in test [2] and in test [3] were more than 0.02 µM, more than 0.02 µM and more than 1 µM, respectively. For the same compound, the Emax in test [2] was more than 80%.
`COc1cc2ncc(-c3cc(F)c(N)nc3F)n2cc1S(=O)(=O)C(C)(C)Cn1cccn1` [Example 65, 3,6-difluoro-5-(7-methoxy-6-((2-methyl-1-(1H-pyrazol-1-yl)propan-2-yl)sulfonyl)imidazo[1,2-a]pyridin-3-yl)pyridin-2-amine]: the concentration for half-maximal inhibition (IC50) in test [1] is more than 0.02 µM; in test [2], more than 0.02 µM; in test [3], more than 1 µM. For the same compound, in test [2], the Emax was more than 80%.
As to `COc1cc2ncc(-c3ccc(N)nc3F)n2cc1S(=O)(=O)C1CC1` [Example 66, 5-(6-(cyclopropylsulfonyl)-7-methoxyimidazo[1,2-a]pyridin-3-yl)-6-fluoropyridin-2-amine], the half-maximal inhibitory concentration (IC50) in test [1] is more than 0.02 µM; in test [2] it was more than 0.02 µM; in test [3], more than 1 µM. The Emax in test [2] was more than 80%.
Turning to `CCCS(=O)(=O)Nc1cc(-c2cnc3cc(OC)c(S(=O)(=O)C4(C)CC4)cn23)cc(OC)c1OC` [Example 67, N-(2,3-dimethoxy-5-(7-methoxy-6-((1-methylcyclopropyl)sulfonyl)imidazo[1,2-a]pyridin-3-yl)phenyl)propane-1-sulfonamide], the 50% inhibitory concentration (IC50) in test [1] was less than 0.001 µM; in test [2] it was less than 0.001 µM; in test [3] it was less than 0.05 µM. Further, the Emax in test [2] is more than 80%.
As for `COc1cc2ncc(-c3cc(F)c(N)nc3F)n2cc1S(=O)(=O)C1(C)CC1` [Example 68, 3,6-difluoro-5-(7-methoxy-6-((1-methylcyclopropyl)sulfonyl)imidazo[1,2-a]pyridin-3-yl)pyridin-2-amine], the values for the IC50 in test [1], in test [2] and in test [3] were more than 0.02 µM, more than 0.02 µM and more than 1 µM, respectively. Besides, in test [2], the Emax is more than 80%.
In the case of `CCC(C)(C)S(=O)(=O)c1cn2c(-c3cc(F)c(N)nc3F)cnc2cc1OC` [Example 69, 3,6-difluoro-5-(7-methoxy-6-(tert-pentylsulfonyl)imidazo[1,2-a]pyridin-3-yl)pyridin-2-amine], the figures for the IC50 in test [1], in test [2] and in test [3] were 0.0025 to 0.02 µM, 0.0025 to 0.02 µM and 0.25 to 1 µM, respectively. Moreover, the Emax in test [2] is more than 80%.
In the case of `COc1cc2ncc(-c3cc(F)c(N)nc3F)n2cc1S(=O)(=O)C1(C)CCN(C(=O)OC(C)(C)C)CC1` [Example 70, tert-butyl 4-((3-(6-amino-2,5-difluoropyridin-3-yl)-7-methoxyimidazo[1,2-a]pyridin-6-yl)sulfonyl)-4-methylpiperidine-1-carboxylate], the figures for the IC50 in test [1], in test [2] and in test [3] were more than 0.02 µM, more than 0.02 µM and more than 1 µM, respectively. In addition, the Emax in test [2] was more than 80%.
As for `COc1cc2ncc(-c3cc(F)c(N)nc3F)n2cc1S(=O)(=O)C1(C)CCNCC1` [Example 71, 3,6-difluoro-5-(7-methoxy-6-((4-methylpiperidin-4-yl)sulfonyl)imidazo[1,2-a]pyridin-3-yl)pyridin-2-amine], the IC50 in test [1] was 0.0025 to 0.02 µM; in test [2], 0.0025 to 0.02 µM; in test [3], more than 1 µM. In addition, the Emax in test [2] is more than 80%.
With `COc1cc2ncc(-c3cc(F)c(N)nc3F)n2cc1S(=O)(=O)C1(C)CCOCC1` [Example 72, 3,6-difluoro-5-(7-methoxy-6-((4-methyltetrahydro-2H-pyran-4-yl)sulfonyl)imidazo[1,2-a]pyridin-3-yl)pyridin-2-amine], the results for the IC50 in test [1], in test [2] and in test [3] were more than 0.02 µM, more than 0.02 µM and more than 1 µM, respectively. The Emax in test [2] was more than 80%.
On to `COc1cn2ncc(-c3cc(F)c(N)nc3F)c2cc1C1(O)CCN(C)CC1` [Example 73, 4-(3-(6-amino-2,5-difluoropyridin-3-yl)-6-methoxypyrazolo[1,5-a]pyridin-5-yl)-1-methylpiperidin-4-ol], for which the IC50 was in the range of 0.0025 to 0.02 µM in test [1], 0.0025 to 0.02 µM in test [2] and 0.25 to 1 µM in test [3]. Moreover, the Emax in test [2] is more than 80%.
Regarding `COc1cc2ncc(-c3cc(F)c(N)nc3F)n2cc1C1(O)CCN(C)CC1` [Example 74, 4-(3-(6-amino-2,5-difluoropyridin-3-yl)-7-methoxyimidazo[1,2-a]pyridin-6-yl)-1-methylpiperidin-4-ol], the IC50 in test [1] was more than 0.02 µM; in test [2], more than 0.02 µM; in test [3], more than 1 µM. Further, in test [2], the Emax is more than 80%.
Consider `COc1cc2ncc(-c3cc(F)c(N)nc3F)n2cc1C1(O)CCOCC1` [Example 75, 4-(3-(6-amino-2,5-difluoropyridin-3-yl)-7-methoxyimidazo[1,2-a]pyridin-6-yl)tetrahydro-2H-pyran-4-ol], for which the IC50 was more than 0.02 µM in test [1], more than 0.02 µM in test [2] and more than 1 µM in test [3]. In addition, the Emax in test [2] is more than 80%.
For the compound `COc1cc2ncc(-c3cc(F)c(N)nc3F)n2cc1C1(OC)CCOCC1` [Example 76, 3,6-difluoro-5-(7-methoxy-6-(4-methoxytetrahydro-2H-pyran-4-yl)imidazo[1,2-a]pyridin-3-yl)pyridin-2-amine], the IC50 in test [1] was more than 0.02 µM; in test [2] it was more than 0.02 µM; in test [3], more than 1 µM. For the same compound, the Emax in test [2] is more than 80%.
Consider `COc1cc2ncc(-c3cc(F)c(N)nc3F)n2cc1S(=O)(=O)c1ccnn1C` [Example 77, 3,6-difluoro-5-(7-methoxy-6-((1-methyl-1H-pyrazol-5-yl)sulfonyl)imidazo[1,2-a]pyridin-3-yl)pyridin-2-amine], for which the half-inhibitory concentration (IC50) in test [1] was more than 0.02 µM; in test [2], more than 0.02 µM; in test [3], more than 1 µM. Also, the Emax in test [2] was more than 80%.
In the case of `COc1cc2ncc(-c3cc(F)c(N)nc3F)n2cc1S(=O)(=O)c1cn[nH]c1` [Example 78, 5-(6-((1H-pyrazol-4-yl)sulfonyl)-7-methoxyimidazo[1,2-a]pyridin-3-yl)-3,6-difluoropyridin-2-amine], the IC50 was 0.0025 to 0.02 µM in test [1], 0.0025 to 0.02 µM in test [2] and more than 1 µM in test [3]. In test [2], the Emax is more than 80%.
Turning to `COc1cc2ncc(-c3cc(F)c(N)nc3F)n2cc1P1(=O)CCN(C)CC1` [Example 79, 4-(3-(6-amino-2,5-difluoropyridin-3-yl)-7-methoxyimidazo[1,2-a]pyridin-6-yl)-1-methyl-1,4-azaphosphinane 4-oxide], the figures for the half-inhibitory concentration (IC50) in test [1], in test [2] and in test [3] were more than 0.02 µM, more than 0.02 µM and more than 1 µM, respectively. The Emax in test [2] is more than 80%.
Regarding `COc1ccn2ncc(-c3cc(N)cc(F)c3)c2n1` [Example 80, 3-fluoro-5-(5-methoxypyrazolo[1,5-a]pyrimidin-3-yl)aniline], the IC50 in test [1] is more than 0.02 µM; in test [2], more than 0.02 µM; in test [3] it was more than 1 µM. In test [2], the Emax is less than 30%.
